Laboratory results as given in patent US20190125888A1, “TARGETED CONJUGATES AND PARTICLES AND FORMULATIONS THEREOF” (priority 2015, published 2019).
Read-outs that look alike come from different tables or passages of the source.

Columns and labels:
[1] = Ligand charge of maytansinoid conjugates; assay type: physicochemical
[2] = system: NCI-H524 (ATCC) human lung cancer cells; assay type: cell-based
Experimental: FIG. 1 is a graph of various conjugates represented as bars and showing on the Y-axis their activity in an H524 proliferation assay with and without competition by octreotide. […] This illustrates the suprprising finding that only maytansinoid conjugates show activity that is dependent on the receptor.
Conjugates were assessed in an in vitro assay evaluating inhibition of cell proliferation. NCI-H524 (ATCC) human lung cancer cells were plated in 96 well, V-bottomed plates (Costar) at a concentration of 5,000 cells/well and 24 hours later were treated with compound for 6 hours and further incubated 66 hours. Compound starting dose was 20 μM and three fold serial dilutions were done for a total of ten points. After 6 hours of treatment, cells were spun down, the drug containing media was removed, and fresh complete medium was added and used to resuspend the cells, which were spun again. After removal of the wash media, the cells were resuspended in complete medium, then transferred into white walled, flat bottomed 96 well plates. […] Proliferation was measured using CellTiter Glo reagent using the standard protocol (Promega) and a Glomax multi+detection system (Promega). Percent proliferation inhibition was calculated using the following formula: % inhibition=(control-treatment)/control*100. Control is defined as vehicle alone. IC50 curves were generated using the nonlinear regression analysis (four parameter) with GraphPad Prism 6.
Conjugates were tested for their activity dependence on the somatostatin receptor. Active agent Z in the conjugate was selected from auristatin, carbazitaxel, DM1, doxorubicin, platinum, SN-38 and vinblastine. Active agent Z is connected to octreotide with various linkers. Proliferation IC50 values of the conjugates were measured. Proliferation IC50 values of the conjugates without octreotide competition were also measured. The ratio of IC50 with octreotide competition and IC50 without octreotide competition is an indicator of whether activity is at least particially dependent on bind to the somatostatin receptor. […] Therefore, the activity of conjugates comprising DM1 is dependent on the binding to the somatostatin receptor.

[3] = read-out: H524 IC50 6 h, 6 hours treatment, further 66 hours incubation
[4] = read-out: H524 IC50 with 100 μM octreotide 6 h, with 100 μM octreotide competition, 6 h treatment

In the case of CCCC(=O)N[C@H](Cc1ccccc1)C(=O)N[C@H]1CSSC[C@@H](C(=O)N[C@H](C(=O)NCCSSC(C)(C)CCC(=O)N(C)[C@@H](C)C(=O)O[C@H]2CC(=O)N(C)c3cc(cc(OC)c3Cl)C/C(C)=C/C=C/[C@@H](OC)[C@@]3(O)C[C@H](OC(=O)N3)[C@@H](C)[C@@H]3O[C@@]23C)[C@@H](C)O)NC(=O)[C@H]([C@@H](C)O)NC(=O)[C@H](CCCCN)NC(=O)[C@@H](Cc2c[nH]c3ccccc23)NC(=O)[C@H](Cc2ccc(O)cc2)NC1=O [Conjugate 3], the Ligand charge [1] is reported as “+1”.
With CCNC(=O)N[C@H](Cc1ccccc1)C(=O)N[C@H]1CSSC[C@@H](C(=O)N[C@H](C(=O)N[C@H](C(N)=O)C(C)(C)SSCCC(=O)N(C)[C@@H](C)C(=O)O[C@H]2CC(=O)N(C)c3cc(cc(OC)c3Cl)C/C(C)=C/C=C/[C@@H](OC)[C@@]3(O)C[C@H](OC(=O)N3)[C@@H](C)[C@@H]3O[C@@]23C)[C@@H](C)O)NC(=O)[C@H]([C@@H](C)O)NC(=O)[C@H](CCCCN)NC(=O)[C@@H](Cc2c[nH]c3ccccc23)NC(=O)[C@H](Cc2ccc(O)cc2)NC1=O [Conjugate 16] the Ligand charge [1] was “+1”, the IC50 [2, 3] was 185 nM and the IC50 [2, 4] was 516 nM.
In the case of COc1cc2cc(c1Cl)N(C)C(=O)C[C@H](OC(=O)[C@H](C)N(C)C(=O)CCSSC(C)(C)[C@H](NC(=O)[C@@H](NC(=O)[C@@H]1CSSC[C@H](NC(=O)[C@@H](Cc3ccccc3)NCc3ccccc3)C(=O)N[C@@H](Cc3ccc(O)cc3)C(=O)N[C@H](Cc3c[nH]c4ccccc34)C(=O)N[C@@H](CCCCN)C(=O)N[C@@H]([C@@H](C)O)C(=O)N1)[C@@H](C)O)C(N)=O)[C@]1(C)O[C@H]1[C@H](C)[C@@H]1C[C@@](O)(NC(=O)O1)[C@H](OC)/C=C/C=C(\C)C2 [Conjugate 17], the Ligand charge [1] is reported as “+2”, the IC50 [2, 3] is reported as 8.5 nM and the IC50 [2, 4] is reported as 48 nM.
With COc1cc2cc(c1Cl)N(C)C(=O)C[C@H](OC(=O)[C@H](C)N(C)C(=O)CCSC1CC(=O)N(CCCCCNC(=O)[C@@H](NC(=O)[C@@H]3CSSC[C@H](NC(=O)[C@@H](Cc4ccccc4)NC(=O)NC4CCCCC4)C(=O)N[C@@H](Cc4ccc(O)cc4)C(=O)N[C@H](Cc4c[nH]c5ccccc45)C(=O)N[C@@H](CCCCN)C(=O)N[C@@H]([C@@H](C)O)C(=O)N3)[C@@H](C)O)C1=O)[C@]1(C)O[C@H]1[C@H](C)[C@@H]1C[C@@](O)(NC(=O)O1)[C@H](OC)/C=C/C=C(\C)C2 (some centres unmarked) [Conjugate 22] the Ligand charge [1] was “+1”, the IC50 [2, 3] was 2.6 nM and the IC50 [2, 4] was 94 nM.
With CCNC(=O)N[C@H](Cc1ccccc1)C(=O)N[C@H]1CSSC[C@@H](C(=O)N[C@H](C(=O)NCCCCCN2C(=O)CC(SCCC(=O)N(C)[C@@H](C)C(=O)O[C@H]3CC(=O)N(C)c4cc(cc(OC)c4Cl)C/C(C)=C/C=C/[C@@H](OC)[C@@]4(O)C[C@H](OC(=O)N4)[C@@H](C)[C@@H]4O[C@@]34C)C2=O)[C@@H](C)O)NC(=O)[C@H]([C@@H](C)O)NC(=O)[C@H](CCCCN)NC(=O)[C@@H](Cc2c[nH]c3ccccc23)NC(=O)[C@H](Cc2ccc(O)cc2)NC1=O (some centres unmarked) [Conjugate 23] the Ligand charge [1] was “+1”, the IC50 [2, 3] was 5 nM and the IC50 [2, 4] was 124 nM.
In the case of CCNC(=O)N[C@H](Cc1ccccc1)C(=O)N[C@H]1CSSC[C@@H](C(=O)N[C@H](C(=O)N2CCCCC2)C(C)(C)SSCCC(=O)N(C)[C@@H](C)C(=O)O[C@H]2CC(=O)N(C)c3cc(cc(OC)c3Cl)C/C(C)=C/C=C/[C@@H](OC)[C@@]3(O)C[C@H](OC(=O)N3)[C@@H](C)[C@@H]3O[C@@]23C)NC(=O)[C@H]([C@@H](C)O)NC(=O)[C@H](CCCCN)NC(=O)[C@@H](Cc2c[nH]c3ccccc23)NC(=O)[C@H](Cc2ccc(O)cc2)NC1=O [Conjugate 33], the Ligand charge [1] is reported as “+1”, the IC50 [2, 3] is reported as 265 nM and the IC50 [2, 4] is reported as 462 nM.
With C[C@@H](O)[C@@H]1NC(=O)[C@H](CCCCN)NC(=O)[C@@H](Cc2c[nH]c3ccccc23)NC(=O)[C@H](Cc2ccccc2)NC(=O)[C@@H](NC(=O)[C@H](N)Cc2ccccc2)CSSC[C@@H](C(=O)N[C@H](CO)[C@@H](C)O)NC1=O [Octreotide, H2N-D-Phe-Cys-Phe-D-Trp-Lys-Thr-Cys-Thr-ol (disulfide bridge Cys2-Cys7), reference compound] the “effect on cell proliferation” value ([2]; octreotide alone) was “no significant effect”.
